ChEMBL document CHEMBL1138810, “Studies of targeting and intracellular trafficking of an anti-androgen doxorubicin-formaldehyde conjugate in PC-3 prostate cancer cells bearing androgen receptor-GFP chimera” (J Med Chem, 2004)

target: T1, Androgen receptor (Homo sapiens, UniProt P10275); assay: Inhibition of [3H]mibolerone binding to human Androgen receptor of PC3/AR Cell Lysate
T1 sequence (P10275 whole entry): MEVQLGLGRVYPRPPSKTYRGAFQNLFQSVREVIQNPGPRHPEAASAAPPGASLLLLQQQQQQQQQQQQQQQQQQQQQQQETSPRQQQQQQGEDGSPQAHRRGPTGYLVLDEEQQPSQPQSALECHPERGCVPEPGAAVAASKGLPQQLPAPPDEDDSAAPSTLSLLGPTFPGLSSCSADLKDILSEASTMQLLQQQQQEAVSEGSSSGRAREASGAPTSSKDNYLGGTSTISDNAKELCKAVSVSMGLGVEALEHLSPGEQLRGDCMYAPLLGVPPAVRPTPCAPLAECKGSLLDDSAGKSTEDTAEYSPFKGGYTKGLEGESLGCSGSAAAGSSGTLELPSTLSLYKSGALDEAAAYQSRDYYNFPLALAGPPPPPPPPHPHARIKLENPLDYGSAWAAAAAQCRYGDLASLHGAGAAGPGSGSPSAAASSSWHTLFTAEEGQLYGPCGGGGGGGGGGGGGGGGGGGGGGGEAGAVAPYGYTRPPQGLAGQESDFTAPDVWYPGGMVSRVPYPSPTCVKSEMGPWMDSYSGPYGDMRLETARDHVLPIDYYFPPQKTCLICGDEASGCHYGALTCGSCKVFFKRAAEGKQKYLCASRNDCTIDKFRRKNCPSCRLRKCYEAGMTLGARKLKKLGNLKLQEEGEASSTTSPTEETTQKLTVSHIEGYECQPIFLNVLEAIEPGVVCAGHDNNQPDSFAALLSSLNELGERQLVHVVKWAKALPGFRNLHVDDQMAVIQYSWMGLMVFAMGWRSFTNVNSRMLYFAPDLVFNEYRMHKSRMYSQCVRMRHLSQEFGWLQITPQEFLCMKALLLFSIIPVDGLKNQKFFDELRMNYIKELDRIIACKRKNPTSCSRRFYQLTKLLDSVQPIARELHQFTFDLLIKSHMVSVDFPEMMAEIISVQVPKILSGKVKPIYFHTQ

Row | IC50 [nM] | SMILES
1 | 90 | COc1cccc2c1C(=O)c1c(O)c3c(c(O)c1C2=O)C[C@@](O)(C(=O)CO)CC3OC1C[C@H](NCNC(=O)c2cc(COCC#CCN3C(=O)N(c4ccc(C#N)c(C(F)(F)F)c4)C(=O)C3(C)C)ccc2O)[C@H](O)[C@H](C)O1 (some centres undefined)
2 | 332 | CC1(C)C(=O)N(c2ccc(C#N)c(C(F)(F)F)c2)C(=O)N1OCCOCCOCCCc1ccc(O)c(C(N)=O)c1
3 | 63 | CCCC(=O)Oc1ccc(COCC#CCN2C(=O)N(c3ccc(C#N)c(C(F)(F)F)c3)C(=O)C2(C)C)cc1C(=O)NCN[C@H]1CC(OC2C[C@](O)(C(=O)CO)Cc3c(O)c4c(c(O)c32)C(=O)c2c(OC)cccc2C4=O)O[C@@H](C)[C@H]1O (some centres undefined)

Row | SMILES | IC50 [nM]
4 | CC1(C)C(=O)N(c2ccc(C#N)c(C(F)(F)F)c2)C(=O)N1OCC#CCCc1ccc(O)c(C(N)=O)c1 | 49
